# Entries after “also recorded” stand apart in the source; their conditions may differ.
# Tests used:
# human duodenal enteroids [1] = experiment: Single cell RNA sequencing of enteroids (cell type proportions, module score, scVelo trajectory); format: cell-based
# Description: To better assess the transcriptomic distinctions between cells from the various culture conditions, single cell RNA sequencing (scRNA-seq) on the 10× platform combined with sample hashing was utilized, allowing the assessment of the reproducibility of the findings from distinct donors. Enteroids from three individuals were grown in G2D12, RSP or AS, for a total of nine samples. After the 14-day protocol, enteroids were isolated and processed into a single-cell suspension and their condition and patient source were marked using Hashtag antibodies prior to pooling the samples together (Stoeckius, M. et al. Genome Biol 19, 224, doi:10.1186/s13059-018-1603-1 (2018).)^47. After labeling, cells were processed, and single-cell transcriptomes were generated.
# Enteroids were incubated in Cell Recovery solution for 40-60 minutes at 4° C. to remove the Matrigel® and then centrifuged at 500×g for 5 minutes at 4° C. To achieve single cell suspension, organoids were then incubated in 500 μL of TrypLE™ Express at 37° C. for 30 minutes and broken up by repeated pipetting using a bent P1000 pipette tip. Each sample was then diluted in 800 μL of 20% FBS in Advanced DMEM/F12, filtered through 37 μm mesh, and then centrifuged at 300×g for 10 minutes at 4° C. Dead cells were then removed using magnetic-activated cell sorting (MACS) separation following the manufacturer's protocol. Briefly, each sample was resuspended in 100 μL Dead Cell Removal MicroBeads (Miltenyi Biotec) and incubated at room temperature for 15 minutes. 400 μL of 1×Binding Buffer was then added to each sample, after which the samples were applied to prepared MACS columns placed in a MACS Separator. Flow-through containing live cells was collected. This was followed by washing the columns four times with 1× Binding Buffer, which were combined with the initial flow-through. These samples were then centrifuged at 800×g for 5 minutes at 4° C.
# Single cells isolated after dead cell removal (see, Example 18) were labeled prior to sequencing with Totalseq™-B hashtag antibodies (Biolegend), targeted against CD298 and β2-microglobulin, per the manufacturer's protocol^47. Briefly, each of the nine samples (three separate differentiation conditions in three enteroid lines) were resuspended in 50 μL of Cell Staining Buffer (Biolegend) and blocked with […] of Human TruStain FcX^TM blocking reagent (Biolegend) for 10 minutes at 4° C. The supernatant was then removed, and each sample resuspended in 50 μL of Cell Staining Buffer containing […] of a unique Totalseq™-B hashtag antibody. Samples were incubated for 30 minutes at 4° C. and then washed three times in 3.5 mL of Cell Staining Buffer. The samples were then filtered through a 37 μm mesh, resuspended in 2% BSA in PBS at a concentration of 1500 cells/μL, and then pooled together. Of note, prior to the scRNA-seq experiment, antibody binding was verified using fluorophore-conjugated antibodies with the same binding specificity.
# A total of 180,000 cells as one pool were inputted across four channels, with a recovery rate of approximately 30,000 cells across all four channels. RNA libraries were prepared from single cells by the Single Cell Core at Harvard Medical School, Boston, Mass., using the 10× Chromium Single Cell 3′ Library Chip (V3.1) with dual indexed barcodes. Briefly, single cells were partitioned into Gel Beads in Emulsion (GEMs) by the Chromium Controller. […]
# human duodenal enteroids [2] = experiment: qPCR analysis of enteroendocrine and lineage markers in enteroids; format: cell-based
# Source text: For differentiation, enteroids were passaged and grown in GM for two days, to allow for ISC expansion, after which the organoids were transitioned to tissue-specific differentiation media (DM) with additional small molecules added as described (TABLE 1A and TABLE 1B). Media was changed every two days, with Tubastatin A being removed after the second day of differentiation. Enteroids and rectoids were taken for analysis after 14 days.
# Total RNA was purified from individual wells using TRI®Reagent (Sigma) and the Direct-zol™ RNA kit (Zymo Research), following the manufacturer's protocol. RNA concentration was determined using a NanoDrop™ 1000 spectrophotometer (Life Technologies). RNA was treated with DNAse (Promega) and reverse transcribed using the High-Capacity cDNA Reverse Transcription Kit (Life Technologies). Gene expression analysis was then performed by Real Time quantitative PCR (qPCR) using a QuantStudio 6 Flex thermocycler (Life Technologies). Taqman primers from Life Technologies (TABLE 3) were used. 18S transcripts were used as the internal control and data were expressed using the 2^−ddCt method with Ct limit of 40. Fold change, unless otherwise stated, was compared to total RNA derived from adult whole mucosal tissue biopsies.
# [3] = three enteroid lines, 14-day protocol
compound,measurement,setting,value
"CCn1cc(C(=O)O)c(=O)c2c(N)c(F)c(NC3CCCCC3)cc21 [AS, AS1842856]","EE Cell Gene Module Score, effect size between culture conditions (Cohen's d)",human duodenal enteroids [1]; reference gene set from mouse EE cells,larger effect size than RSP
same,proportion of EE cells (scRNA-seq),human duodenal enteroids [1]; [3],18%
same,proportion of enterocytes (scRNA-seq),human duodenal enteroids [1]; [3],2.5%
same,proportion of goblet cells (scRNA-seq),human duodenal enteroids [1]; [3],1.5%
same,proportion of stem cells (scRNA-seq),human duodenal enteroids [1]; [3],42%
same,differentiation trajectory (scVelo RNA velocity),human duodenal enteroids [1]; vector field on UMAP,the majority of vectors moving towards the goblet cell cluster and then into the EE cluster
same,expression of the enterocyte marker ALP1 (qPCR),human duodenal enteroids [2]; compared to G14 and G2D12,reduced expression
same,other intestinal lineage marker mRNA expression (qPCR),human duodenal enteroids [2]; compared to G14 and G2D12,"increased expression of other secretory and ISC markers, including ATOH1, MUC2, LYZ, and LGR5"
same,EE marker mRNA expression (qPCR),"human duodenal enteroids [2]; compared to G14 and G2D12, referenced to whole mucosa, normalized to 18S","induced similar mRNA expression trends as Rim and SP (RSP); also recorded: upregulation of multiple EE markers (CHGA, PAX4, PDX1, NEUROD1, NEUROG3, SST and GIP), many to levels approximating whole mucosa"
same,"EE marker mRNA expression, direct comparison of protocols (qPCR)","human duodenal enteroids [2]; compared to RSP / AS alone, FIG. 5.1A and 5A","higher expression of CHGA, NEUROD1, NEUROG3, and SST"
same,"MUC2, ALP1 and LGR5 mRNA expression compared to those that received RSP alone","human duodenal enteroids [2]; qPCR, FIG. 7.1A",decreased expression of MUC2 and ALP1 and increased expression of LGR5

# — patent publication US20230257715A1, “COMPOSITIONS AND METHODS FOR REGULATING ENTEROENDOCRINE CELL DIFFERENTIATION AND USES THEREOF” (The Children's Medical Center Corporation, priority 2020, published 2023)
